The text below walks through data of ChEMBL document CHEMBL2040546, “Identification of influenza endonuclease inhibitors using a novel fluorescence polarization assay” (ACS Chem Biol, 2012).

One test in a line: Cytotoxicity.
Settings: not given
The class given is functional, Canis lupus familiaris, MDCK.
On to `O=C(NCC1CC1)c1nc(-c2cnccn2)[nH]c(=O)c1O`, for which the half-maximal cytotoxic concentration (CC50) is > 60 µM.
Same read-out and setting: with `O=C(NCc1ccccc1)c1nc(-c2cnccn2)[nH]c(=O)c1O` the figure was > 60 µM; with `Cc1ccc(CNC(=O)c2nc(-c3cnccn3)[nH]c(=O)c2O)cc1`, > 60 µM; with `O=C(NCc1ccc(F)cc1)c1nc(-c2cnccn2)[nH]c(=O)c1O`, > 60 µM.
As for `COc1ccc(CNC(=O)c2nc(-c3cnccn3)[nH]c(=O)c2O)cc1`, the 50% cytotoxic concentration (CC50) was > 60 µM.
`CC(NC(=O)c1nc(-c2cnccn2)[nH]c(=O)c1O)c1ccccc1` (centres undefined): the CC50 is > 60 µM.
Still for that read-out and setting: in the case of `C[C@H](NC(=O)c1nc(-c2cnccn2)[nH]c(=O)c1O)c1ccccc1` it was > 60 µM; in that of `C[C@@H](NC(=O)c1nc(-c2cnccn2)[nH]c(=O)c1O)c1ccccc1`, > 60 µM.
Still for that read-out and setting: in the case of `Cc1ccc([C@@H](C)NC(=O)c2nc(-c3cnccn3)[nH]c(=O)c2O)cc1` it was > 60 µM; in that of `C[C@@H](NC(=O)c1nc(-c2cnccn2)[nH]c(=O)c1O)C1CCCCC1`, 7.1 µM; in that of `O=C(N[C@H](CO)c1ccccc1)c1nc(-c2cnccn2)[nH]c(=O)c1O`, > 60 µM.
The same measure, in the same setting: in the case of `O=C(NC1CCCc2ccccc21)c1nc(-c2cnccn2)[nH]c(=O)c1O` (centres undefined) it was 10.2 µM.
Take `O=C(O)c1nc(-c2cnccn2)nc(O)c1O`: the CC50 is > 60 µM.

Staying with this test, now noted: Influenza A virus, MDCK.
`O=C(NCCc1ccccc1)c1nc(-c2cnccn2)[nH]c(=O)c1O`: the 50% cytotoxic concentration (CC50) is > 60 µM.
